{"source": "patent US20210210190A1", "about": "“Diagnostic Method” (Amazentis SA, priority 2019, published 2021)", "key": {"[1]": {"assay": "Study of pomegranate juice and oral urolithin A: urolithin A glucuronide in dried blood spots (Example 3)", "format": "in vivo, human", "settings": "dried blood spot, 24 hours after 500 mg Urolithin A softgel capsule; individual subjects 1-7; listed as UA", "method": "A study was conducted in seven subjects. At the beginning of the study a sample of capillary blood via a finger prick was taken from each subject and 15-20 uL of whole blood was dried onto a dried blood sample (DBS) filter paper sample card (Whatman, Little Chalfont, Buckinghamshire, UK). A minimum of 2 spots per sampling were collected for each time-point. At T0 i.e. baseline sample, subjects ingested 80 ml pomegranate juice (freshly prepared/). At 24 hours following pomegranate juice intake, a further dried blood spot sample was taken and 15-20 uL of whole blood was dried onto a DBS filter paper card. Following this, subjects ingested 500 mg of Urolithin A in a softgel capsule and then at 48 hours (or 24 hours following UA intake), a further dried blood spot sample was taken and 15-20 uL of whole blood was dried onto DBS filter paper sample card.\nThis analytical method was developed to analyse whole blood spot samples collected on dry blood spot sample cards (DBS Filter card) in Example 3.\nEach dried blood spot was punched from cards using a 6 mm diameter puncher and transferred into a tube. Afterwards 150 μL of methanol containing the internal standard was added. […]\nThe quantification of UA-glucuronide was performed by column separation with reversed-phase chromatography followed by detection with triple-stage quadrupole MS/MS in the selected reaction monitoring mode."}, "[2]": {"assay": "Single ascending dose study in healthy elderly subjects: Urolithin A glucuronide in urine (Example 6, Part A)", "format": "in vivo, human", "settings": "mean ± standard error", "method": "A single (Part A) and multiple (Part B) dose study of urolithin A was conducted to evaluate the safety, tolerability, pharmacokinetics and pharmacodynamics profile in healthy elderly subjects.\nPart A: The study was a double-blind, randomized, single ascending doses, study in 24 healthy elderly male and female volunteers. Each subject was randomized for two subsequent doses in three cohorts.\n1100 mg soft gel capsule containing 250 mg of urolithin A (as described in Example 2 above). Soft gel capsules were blister-packed in bulk, Labelling was in accordance with local regulatory specifications and requirements.\nPart A: Single oral dose administration on D1 of each period according to the randomisation. The administration took place around 8:00 am with around 200 mL tap water, in sitting position, and under fasting conditions.\nCohort 1 (8 subjects): 250 mg urolithin A (6 subjects) or placebo (2 subjects) capsule soft gel formulation then 2000 mg urolithin A or placebo capsule soft gel formulation. Cohort 2 (8 subjects): 500 mg urolithin A (6 subjects) or placebo (2 subjects) capsule soft gel formulation. Cohort 3 (8 subjects): 1000 mg urolithin A (6 subjects) or placebo (2 subjects) capsule soft gel formulation.\nIn Part A of the study, total urine was collected during the following intervals: 0-4 h, 4-8 h, 8-12 h, 12-24 h and 24-36 h post-dose. The collected urine volume of each collection period was carefully measured by weight and recorded in the eCRF, as well as the exact start and stop time of the collection interval. Each fraction of collected urine was homogenized and 2 aliquots of 5 mL per interval were kept and stored below −80° C. Following a protocol amendment to extend the blood sampling scheme from 36 to 96 h post-dose, additional spot urine samples were taken 72 and 96 h post-dose but urine was not collected quantitatively.\nThe concentrations of Urolithin A and its metabolites in urine was determined using validated LC-MS/MS assays. The limit of quantification (LOQ) was 10 ng/mL for Urolithin A in urine and 50 ng/mL for Urolithin A glucuronide and Urolithin A sulphate in urine."}}, "note": "“And” between values parts separate entries of the source, which are not always exact repeats. Identical values can stand only once."}
{"smiles": "O=c1oc2cc(O)ccc2c2ccc(O)cc12", "note": "[Urolithin A]", "values": [{"measurement": "500 mg single UA dosing 24 h UA levels", "setting": "[1]", "result": "153 ng/mL and 93.0 ng/mL and 98.0 ng/mL and 125 ng/mL and 134 ng/mL and 173 ng/mL"}, {"measurement": "Urolithin A glucuronide in urine", "setting": "[2]; 250 mg dose, Predose", "result": "4,114 ± 1,261 ng/mL"}, {"measurement": "Urolithin A glucuronide in urine", "setting": "[2]; 250 mg dose, T0-T4 h", "result": "8,536 ± 1,394 ng/mL"}, {"measurement": "Urolithin A glucuronide in urine", "setting": "[2]; 250 mg dose, T4 h-T8 h", "result": "31,617 ± 7,637 ng/mL"}, {"measurement": "Urolithin A glucuronide in urine", "setting": "[2]; 250 mg dose, T8 h-T12 h", "result": "40,453 ± 9,275 ng/mL"}, {"measurement": "Urolithin A glucuronide in urine", "setting": "[2]; 250 mg dose, T12 h-T24 h", "result": "62,817 ± 8,454 ng/mL"}, {"measurement": "Urolithin A glucuronide in urine", "setting": "[2]; 250 mg dose, T24 h-T36 h", "result": "33,962 ± 8,708 ng/mL"}, {"measurement": "Urolithin A glucuronide in urine", "setting": "[2]; 500 mg dose, Predose", "result": "4,114 ± 1,261 ng/mL"}, {"measurement": "Urolithin A glucuronide in urine", "setting": "[2]; 500 mg dose, T0-T4 h", "result": "40,167 ± 6,802 ng/mL"}, {"measurement": "Urolithin A glucuronide in urine", "setting": "[2]; 500 mg dose, T96 spot urine", "result": "8,720 ± 3,113 ng/mL"}, {"measurement": "Urolithin A glucuronide in urine", "setting": "[2]; 500 mg dose, T4 h-T8 h", "result": "86,758 ± 12,051 ng/mL"}, {"measurement": "Urolithin A glucuronide in urine", "setting": "[2]; 500 mg dose, T8 h-T12 h", "result": "63,800 ± 9,043 ng/mL"}, {"measurement": "Urolithin A glucuronide in urine", "setting": "[2]; 500 mg dose, T12 h-T24 h", "result": "81,125 ± 10,792 ng/mL"}, {"measurement": "Urolithin A glucuronide in urine", "setting": "[2]; 500 mg dose, T24 h-T36 h", "result": "44,242 ± 4,631 ng/mL"}, {"measurement": "Urolithin A glucuronide in urine", "setting": "[2]; 500 mg dose, T72 h spot urine", "result": "15,706 ± 3,751 ng/mL"}, {"measurement": "Urolithin A glucuronide in urine", "setting": "[2]; 1000 mg dose, Predose", "result": "4,114 ± 1,261 ng/mL"}, {"measurement": "Urolithin A glucuronide in urine", "setting": "[2]; 1000 mg dose, T0-T4 h", "result": "70,492 ± 12,094 ng/mL"}, {"measurement": "Urolithin A glucuronide in urine", "setting": "[2]; 1000 mg dose, T96 spot urine", "result": "16,335 ± 3,897 ng/mL"}, {"measurement": "Urolithin A glucuronide in urine", "setting": "[2]; 1000 mg dose, T4 h-T8 h", "result": "76,417 ± 10,635 ng/mL"}, {"measurement": "Urolithin A glucuronide in urine", "setting": "[2]; 1000 mg dose, T8 h-T12 h", "result": "64,967 ± 8,075 ng/mL"}, {"measurement": "Urolithin A glucuronide in urine", "setting": "[2]; 1000 mg dose, T12 h-T24 h", "result": "107,983 ± 17,683 ng/mL"}, {"measurement": "Urolithin A glucuronide in urine", "setting": "[2]; 1000 mg dose, T24 h-T36 h", "result": "59,575 ± 9,560 ng/mL"}, {"measurement": "Urolithin A glucuronide in urine", "setting": "[2]; 1000 mg dose, T72 h spot urine", "result": "29,412 ± 5,717 ng/mL"}, {"measurement": "Urolithin A glucuronide in urine", "setting": "[2]; 2000 mg dose, Predose", "result": "4,114 ± 1,261 ng/mL"}, {"measurement": "Urolithin A glucuronide in urine", "setting": "[2]; 2000 mg dose, T0-T4 h", "result": "39,500 ± 6,033 ng/mL"}, {"measurement": "Urolithin A glucuronide in urine", "setting": "[2]; 2000 mg dose, T96 spot urine", "result": "38,487 ± 12,858 ng/mL"}, {"measurement": "Urolithin A glucuronide in urine", "setting": "[2]; 2000 mg dose, T4 h-T8 h", "result": "65,317 ± 10,853 ng/mL"}, {"measurement": "Urolithin A glucuronide in urine", "setting": "[2]; 2000 mg dose, T8 h-T12 h", "result": "50,450 ± 5,793 ng/mL"}, {"measurement": "Urolithin A glucuronide in urine", "setting": "[2]; 2000 mg dose, T12 h-T24 h", "result": "114,817 ± 12,123 ng/mL"}, {"measurement": "Urolithin A glucuronide in urine", "setting": "[2]; 2000 mg dose, T24 h-T36 h", "result": "60,533 ± 12,216 ng/mL"}, {"measurement": "Urolithin A glucuronide in urine", "setting": "[2]; 2000 mg dose, T72 h spot urine", "result": "70,567 ± 17,054 ng/mL"}]}
